The values below are quoted from earlier work in PMC11243196, “Identification of Benzothiazoles Bearing 1,3,4-Thiadiazole as Antiproliferative Hybrids Targeting VEGFR-2 and BRAF Kinase: Design, Synthesis, BIO Evaluation and In Silico Study” (Molecules, 2024).

As usually defined, the IC50 is the concentration needed to halve the response being measured.

One series has as its system VEGFR-2 in MCF-7 cells. More on the design: method as in PMID 32045054. The note with it: cited from earlier work.
The subject of the next series is FGFR-1. More on the design: method as in PMID 32045054. Conditions: read-out: IC50 against FGFR-1; cited from earlier work.
Another series deals with PDGFR-β. More on the design: method as in PMID 32045054. The note with it: read-out: IC50 against PDGFR-β; cited from earlier work.
For the next series, the system named is CRAF. The note with it: read-out: IC50 against CRAF; cited from earlier work.
In a further series the test system is BRAFV600. The note with it: read-out: IC50 against BRAFV600; cited from earlier work.

Structures are written as SMILES.

Turning to `COc1cc(/C=N/NC(=O)COc2ccc(-c3nc4ccccc4s3)cc2OC)ccc1O` [III], in the series with VEGFR-2 in MCF-7 cells, the “inhibitory effect on VEGFR-2 in MCF-7 cells” value was 83%. The IC50 with FGFR-1 is 190 nM; in the series on PDGFR-β, 80 nM.

Regarding `CNC(=O)c1cc(Oc2ccc3nc(NC(=O)Nc4ccc(Cl)c(Cl)c4)sc3c2)ccn1` [IV], the figures for the 50% inhibitory concentration (IC50) with CRAF and in the series with BRAFV600 were 15 nM and 95 nM, respectively.
